{"source": "patent US20030129629A1", "about": "“Methods and compositions for the identification, assessment, prevention, and therapy of human cancers” (Millennium Pharmaceuticals, Inc., priority 2000, published 2003)", "origin": "cited, not measured here", "test_system": "60 cancer cell lines (NCI 60 cancer cell line series)", "settings": "cited from earlier work", "note": "Where two headings read alike, the source gives them in different places."}
{"smiles": "CC[C@@]1(O)C(=O)OCc2c1cc1n(c2=O)Cc2cc3c(CN(C)C)c(O)ccc3nc2-1", "note": "[Topotecan]", "values": [{"measurement": "−Log (GI50)", "setting": "CNS SF-268 CL12014", "result": 7.7}, {"measurement": "−Log (GI50)", "setting": "Leukemia CCRF-CEM(I) CL7003", "result": 7.9}, {"measurement": "−Log (GI50)", "setting": "Leukemia MOLT-4 CL7006", "result": 7.9}, {"measurement": "−Log (GI50)", "setting": "NSCLC HOP-62 CL1026", "result": 7.9}, {"measurement": "−Log (GI50)", "setting": "NSCLC NCI-H23(I) CL1001", "result": 7.4}, {"measurement": "−Log (GI50)", "setting": "NSCLC NCI-H460 CL1021", "result": 7.7}]}
